The target of assay [1] is T1, human 5-lipoxygenase enzyme (Homo sapiens, UniProt P09917).
T1 construct: endogenous in cells; host or cells: human whole blood (leukocytes) stimulated with A23187
T1 sequence (P09917 1-674): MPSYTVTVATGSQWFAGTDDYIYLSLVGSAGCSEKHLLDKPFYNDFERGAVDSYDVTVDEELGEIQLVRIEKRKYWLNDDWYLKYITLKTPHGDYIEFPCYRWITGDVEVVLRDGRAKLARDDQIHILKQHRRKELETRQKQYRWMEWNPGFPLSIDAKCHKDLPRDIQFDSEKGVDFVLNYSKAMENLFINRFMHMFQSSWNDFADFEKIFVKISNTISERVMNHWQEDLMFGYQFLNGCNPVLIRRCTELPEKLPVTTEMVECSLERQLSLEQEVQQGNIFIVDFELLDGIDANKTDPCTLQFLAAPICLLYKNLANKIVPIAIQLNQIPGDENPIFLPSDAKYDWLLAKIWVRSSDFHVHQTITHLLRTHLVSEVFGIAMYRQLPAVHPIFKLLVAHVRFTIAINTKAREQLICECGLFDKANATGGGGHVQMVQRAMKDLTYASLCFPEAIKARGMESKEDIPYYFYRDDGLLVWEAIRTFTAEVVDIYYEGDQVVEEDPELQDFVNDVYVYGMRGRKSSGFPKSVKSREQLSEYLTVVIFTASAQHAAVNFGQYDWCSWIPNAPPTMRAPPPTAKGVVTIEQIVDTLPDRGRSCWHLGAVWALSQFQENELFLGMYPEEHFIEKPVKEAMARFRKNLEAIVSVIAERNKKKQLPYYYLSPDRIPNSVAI
Put plainly: Inhibition of LTB4 production in human whole blood. In kind it is cell-based. Particulars: human whole blood, calcium ionophore A23187 50 μM, LTB4 by EIA; read-out: HWB IC50. On the procedure:
This assay examines the ability of a compound to inhibit leukotriene B4 production from human blood stimulated with calcium ionophore. As this production of leukotriene B4 is mediated via the activation of the 5-lipoxygenase enzyme, this assay is predictive of a compound's ability to inhibit the human 5-lipoxygenase enzyme.
The procedure for the assay is as follows. Blood is drawn from normal human volunteers into tubes containing heparin. 1 ml of the heparinized blood is pipetted into a 1.5 ml polypropylene tube. To this sample is added either different concentrations of the test compound (5 μl) dissolved in DMSO or 5 μl of DMSO as a vehicle control. These samples are incubated in a water bath, at 37° C. for 15 min. 5 μl of the calcium ionophore A23187 (at a final concentration of 50 μM) is then added to each sample, which is vortexed and placed back in the water bath for 30 min. The samples are then centrifuged at 2500 rpm for 10 min. at 4° C. 50 μl of the supernatant is transferred into pre-cooled Eppendorf tubes containing 950 μl of enzyme immunoassay (EIA) buffer. A commercially available EIA kit (Cayman Chemical Co., Ann Arbor, Mich., USA) is used to subsequently measure the LTB4 production in the samples. The LTB4 levels produced in the vehicle control sample is then compared to those in which the test compound has been added. From this a percent inhibition of LTB4 production by each concentration of test compound is calculated and the IC50 for inhibition of LTB4 production for each test compound is determined.

Another assay has as its target T2, human cloned H1 receptor (Homo sapiens, UniProt P35367).
T2 construct: expressed in transfected cells; host or cells: CHO-K1
Put plainly: CHO-K1 H1R binding assay. Particulars: 3H-pyrilamine 2 nM, CHO-K1 membranes, 3 hours at 37° C.; read-out: CHOH1 K1.

Assay [2] concerns histamine-induced bronchoconstriction. Briefly: Antihistaminergic activity in vivo (histamine-induced bronchoconstriction). Conditions: Cavia porcellus, guinea pig, oral, 2 mg/kg. As for the experimental part: Male, Hartley guinea pigs are obtained from Charles River Labs at a body weight of 350 -400 grams. Inhibition of histamine activity is measured by the method of Konzett and Rössler (Naonyn-Schmiedebergs Arch. Exp. Path. Pharmakol. 195, 71-74 (1940). Anaethetized guinea pigs are subjected to artificial ventilation. The endotracheal pressure is recorded. Bronchoconstriction is induced by successive intravenous injections of histamine. The test compounds are administered orally in a 1% methocellulose suspension at set timepoints prior to the administration of histamine.
The results (Table 2) show the percent inhibition of histamine-induced bronchoconstriction by selected compounds at multiple time points post oral dosing. 50% inhibition or greater is considered significant.

The test system of another assay is 5-lipoxygenase. Briefly: 5-Lipoxygenase inhibitory activity in vivo. Particulars: guinea pig, oral, 2 mg/kg, 6 hours. As for the experimental part: Male, Hartley guinea pigs are obtained from Charles River Labs at a body weight of 350-400 grams. Compounds are prepared at a volume of [1-2 mg/ml] in 1% methocellulose for oral dosing. Animals are separated into groups of five (5). Each assay includes a control group dosed with vehicle. Each group of animals is dosed with either vehicle or compound by oral gavage. Animals are allowed to rest for one, three, or six hours after dosing. Control animals are allowed to rest for three hours. At the appropriate times, the animals are anesthetized with Urethane at 1.5 g/kg, ip. Blood is drawn into a heparinized syringe via cardiac puncture. Blood (0.5 ml) is aliquoted into separately-labeled 1.5 ml eppendorf tubes. Each sample is loaded with 5 μl of [15 mM] Arachidonic Acid, and placed in a 37° C. water bath for five minutes. After five minutes, the blood is stimulated with 5 μl of [5 mM] A23187 (Calcium Ionophore) and retained in the water bath for an additional 30 minutes. After the thirty minutes, the blood samples are removed from the water bath and centrifuged at 14,000 rpm for 2 minutes. Plasma is diluted to EIA buffer and an EIA is performed following manufacturer instructions (Cayman Chemical Co., Ann Arbor, Mich., USA). The results (Table 3) show the percent inhibition of 5-lipoxygenase by selected compounds at multiple time points post oral dosing. 50% inhibition or greater is considered significant.

pIC50, pKi: −log10 of the molar value.

T2 sequence (P35367 whole entry): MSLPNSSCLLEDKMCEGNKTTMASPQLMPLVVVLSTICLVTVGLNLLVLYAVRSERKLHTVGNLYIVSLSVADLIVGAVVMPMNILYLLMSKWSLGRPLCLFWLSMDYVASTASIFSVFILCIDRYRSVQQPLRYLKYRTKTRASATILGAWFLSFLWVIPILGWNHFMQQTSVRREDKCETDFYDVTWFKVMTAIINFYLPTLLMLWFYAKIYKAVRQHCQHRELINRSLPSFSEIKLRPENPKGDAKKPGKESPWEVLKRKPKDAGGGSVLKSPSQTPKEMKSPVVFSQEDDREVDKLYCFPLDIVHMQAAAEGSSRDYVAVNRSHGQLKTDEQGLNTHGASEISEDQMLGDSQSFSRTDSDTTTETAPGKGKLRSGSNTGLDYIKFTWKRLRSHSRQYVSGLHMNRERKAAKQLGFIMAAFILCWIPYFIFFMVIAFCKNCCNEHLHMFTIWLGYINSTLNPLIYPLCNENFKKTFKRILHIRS
Method for human cloned H1 receptor: CHO-K1 cells expressing the human cloned H1 receptor are grown to confluence in tissue culture dishes. Cells are harvested using D-PBS buffer (JRH Biosciences), kept at 4° C., centrifuging to pellet cells (4° C., 500 g, 10 min). The final cell pellet is homogenized and resuspended using Tris/sucrose buffer (20 mM Tris, 250 mM sucrose, pH 7.4 at 4° C.). Aliquots of the membrane preparation are stored at −70° C.
On the day of assay, the membrane preparation is thawed and centrifuged (TLA100.3 rotor, 4° C., 15 min, 23,000 rpm). The pellet is resuspended in Tris/sucrose buffer initially and then diluted further as necessary using assay buffer A (50 mM Na/KPO4, 2 mM MgCl2, 0.5% (w/v) BSA, pH 7.5).
For the binding assay, the membrane preparation, test compound and ^3H-pyrilamine (2 nM final) in buffer A with 1% (v/v) DMSO final are incubated in a 96-well polypropylene plate for 3 hours at 37° C. Non-specific binding is determined in the presence of 10 μM pyrilamine. A 96-well harvester (Packard) is used to harvest the 96-well plate onto a GF/B filter plate pre-treated with 0.1% (v/v) PEI. The plate is counted in a Packard Topcounter after adding Microscint 20 (Packard) scintillation fluid. The Ki for each compound at the histamine H1 receptor is then calculated from these counts.

Usually pIC50 stands for −log10 of the IC50, conventionally taken in molar units. With `NC(=O)N(O)CC#CCN1CCN(C(c2ccc(F)cc2)c2ccc(F)cc2)CC1` [Compound 16, amino-N-(4-{4-[bis(4-fluorophenyl)methyl]piperazinyl}but-2-ynyl)-N-hydroxyamide], in assay [1], the pIC50 is 5.58. Also, the pKi on human cloned H1 receptor was 7.03.
The matching figures for `NC(=O)c1cc(CCCCN(O)C(N)=O)ccc1OCCN1CCN([C@H](c2ccccc2)c2ccc(Cl)cc2)CC1` [Compound 42, 2-(2-{4-[(1R)(4-chloro-phenyl)phenylmethyl]piperazinyl}ethoxy)-5-[4-(aminohydroxy-carbonylamino)butyl] benzamide]: 6.97 and 7.46.
For `NC(=O)N(O)CCCCc1cccc(OCCN2CCN(C(c3ccccc3)c3ccccc3)CC2)c1` [Compound 30, amino-N-[4-(3-{2-[4-(diphenylmethyl)piperazinyl]ethoxy}phenyl)butyl]-N-hydroxyamide], in that order: 6.39 and 7.44.
As for `NC(=O)N(O)CC#CCN1CCN([C@H](c2ccccc2)c2ccc(Cl)cc2)CC1` [Compound 9, N-(4-{4-[(1R) (4-chlorophenyl)phenylmethyl]piperazinyl}but-2-ynyl) amino-N-hydroxyamide], the pIC50 in assay [1] was 5.37. Moreover, on human cloned H1 receptor, the pKi is 7.92.
“N-[2-(2-{4-[(1R)(4-chlorophenyl)phenylmethyl] piperazinyl}ethoxy)ethyl]amino-N-hydroxyamide [Compound 22]”: in assay [1], the negative logarithm of the IC50 (pIC50) was 5.83. Further, the pKi on human cloned H1 receptor is 8.10.
As to `COC(=O)c1cc(C#CCCN(O)C(N)=O)ccc1OCCN1CCN([C@H](c2ccccc2)c2ccc(Cl)cc2)CC1` [Compound 36, methyl2-(2-{4-[(1R) (4-chlorophenyl)phenyl-methyl]piperazinyl}ethoxy)-5-[4-(amino-hydroxycarbonylamino)but-1-ynyl]benzoate], the pIC50 in assay [1] is 7.03. For the same compound, the pKi at human cloned H1 receptor is 6.38.
A word on the inhibition in vivo: it is the change of the read-out against control, counted positive when it falls. A high value points to a response far below the control. Consider `NC(=O)N(O)CCC#Cc1ccc(OCCN2CCN([C@H](c3ccccc3)c3ccc(Cl)cc3)CC2)cc1` [Compound 12, N-{4-[4-(2-{4-[(1R) (4-chlorophenyl)phenylmethyl]piperazinyl}ethoxy)phenyl]but-3-ynyl} amino-N-hydroxyamide], for which the negative logarithm of the IC50 (pIC50) in assay [1] is 6.57. The inhibition in vivo at 2 mg/kg in assay [2] (3 hrs) was 62%; in assay [2] (6 hrs) it was 66%. For the same compound, the “% inhibition of 5-lipoxygenase” value in the assay on 5-lipoxygenase was determined as 80%.
As for `NC(=O)N(O)Cc1cccc(OCCN2CCN([C@H](c3ccccc3)c3ccc(Cl)cc3)CC2)c1` [Compound 5, N-{[3-(2-{4-[(1R) (4-chlorophenyl)phenylmethyl]piperazinyl}ethoxy)phenyl]methyl} amino-N-hydroxyamide], the pIC50 in assay [1] was 5.69. In addition, the pKi at human cloned H1 receptor was 7.64.
For `CN(O)C(=O)NCc1cccc(OCCN2CCN([C@H](c3ccccc3)c3ccc(Cl)cc3)CC2)c1` [Compound 24, N-{[3-(2-{4-[(1R) (4-chlorophenyl)phenylmethyl]piperazinyl}ethoxy)phenyl]methyl} (methyl(hydroxyamino)) carboxamide], in that order: 6.60 and 8.15.
Regarding `NC(=O)N(O)Cc1ccc(CN2CCN([C@H](c3ccccc3)c3ccc(Cl)cc3)CC2)o1` [Compound 26, N-{[5-({4-[(1R) (4-chlorophenyl)phenylmethyl]piperazinyl}methyl)(2-furyl)]methyl} amino-N-hydroxyamide], the pIC50 in assay [1] was 5.77. For the same compound, the pKi on human cloned H1 receptor is 8.40.
For `NC(=O)N(O)Cc1ccc(C#CCN2CCN([C@H](c3ccccc3)c3ccc(Cl)cc3)CC2)cc1` [Compound 3, N-{[4-(3-{4-[(1R) (4-chlorophenyl)phenylmethyl]piperazinyl}prop-1-ynyl)phenyl]methyl} amino-N-hydroxyamide], the pIC50 in assay [1] was 5.77. On human cloned H1 receptor, the pKi was 6.59.
Consider `NC(=O)N(O)Cc1ccc(CCCN2CCN([C@H](c3ccccc3)c3ccc(Cl)cc3)CC2)cc1` [Compound 13, N-{[4-(3-{4-[(1R) (4-chlorophenyl)phenylmethyl]piperazinyl}propyl)phenyl]methyl} amino-N-hydroxyamide], for which, in assay [1], the pIC50 was 5.61. Further, the pKi at human cloned H1 receptor was 8.00.
For `NC(=O)N(O)Cc1cccc(C#CCN2CCN([C@H](c3ccccc3)c3ccc(Cl)cc3)CC2)c1` [Compound 8, N-{[3-(3-{4-[(1R) (4-chlorophenyl)phenylmethyl]piperazinyl}prop-1-ynyl)phenyl]methyl} amino-N-hydroxyamide], in that order: 5.24 and 6.66.
As to `NC(=O)N(O)CCC#Cc1ccc(OCCN2CCN([C@H](c3ccccc3)c3ccc(Cl)cc3)CC2)c(C(=O)O)c1` [Compound 37, 2-(2-{4-[(1R)(4-chlorophenyl)phenyl-methyl]piperazinyl}ethoxy)-5-[4-(amino-hydroxycarbonylamino)but-1-ynyl]benzoic acid], the pIC50 in assay [1] is 5.18. The pKi on human cloned H1 receptor is 8.40.
For `COC(=O)c1cc(CCCCN(O)C(N)=O)ccc1OCCN1CCN([C@H](c2ccccc2)c2ccc(Cl)cc2)CC1` [Compound 40, methyl2-(2-{4-[(1R) (4-chlorophenyl)phenyl-methyl]piperazinyl}ethoxy)-5-[4-(amino-hydroxycarbonylamino)butyl]benzoate], in that order: 6.91 and 6.92.
The matching figures for `NC(=O)N(O)CCOCCN1CCN([C@H](c2ccccc2)c2ccc(Cl)cc2)CC1` (racemic) [Compound 18, amino-N-[2-(2-{4-[(4-chlorophenyl)phenylmethyl]piperazinyl}ethoxy)ethyl]-N-hydroxyamide]: 5.68 and 7.82.
On to `NC(=O)N(O)CCCCc1ccc(OCCN2CCN([C@H](c3ccccc3)c3ccc(Cl)cc3)CC2)c(C(=O)O)c1` [Compound 43, 2-(2-{4-[(1R)(4-chlorophenyl)phenylmethyl]piperazinyl}ethoxy)-5-[4-(aminohydroxycarbonylamino)butyl] benzoic acid], for which the pIC50 in assay [1] was 5.56. Further, the pKi at human cloned H1 receptor is 8.70.
`NC(=O)N(O)CCC#C[C@@H]1CC[C@@H](CN2CCN([C@H](c3ccccc3)c3ccc(Cl)cc3)CC2)O1` [Compound 46, N-{4-[5-({4-[(1R)(4-chlorophenyl)phenylmethyl]piperazinyl}methyl)(2S,5S)oxolan-2-yl]but-3-ynyl}amino-N-hydroxyamide]: the pIC50 in assay [1] was 6.50. Further, the pKi on human cloned H1 receptor was 6.88.
